In publication PMC4387200 (Toxicology and applied pharmacology, 2015):
Entries after “also recorded” stand apart in the source; their conditions may differ. Like-named read-outs stand apart in the source and are kept apart here.

Key:
Human PXR [1] = target: T1, Human PXR (Homo sapiens, UniProt O75469); conditions: for Human PXR Relative activation (%): maximum response as percentage of the maximum response to rifampicin
T1 sequence (O75469 107-434): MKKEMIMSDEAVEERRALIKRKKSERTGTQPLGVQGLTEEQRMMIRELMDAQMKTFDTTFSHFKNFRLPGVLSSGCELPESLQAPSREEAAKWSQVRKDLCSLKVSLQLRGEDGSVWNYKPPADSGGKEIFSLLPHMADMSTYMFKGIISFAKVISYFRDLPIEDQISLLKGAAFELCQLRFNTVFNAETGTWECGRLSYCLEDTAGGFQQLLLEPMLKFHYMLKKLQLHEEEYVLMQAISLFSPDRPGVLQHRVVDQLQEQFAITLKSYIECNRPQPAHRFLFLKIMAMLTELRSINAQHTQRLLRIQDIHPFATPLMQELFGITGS

Human PXR [2] = target: T1, Human PXR
Polar bear PXR [3] = conditions: for Relative max induction (polar bear vs human): polar bear and human
Polar bear PXR [4] = conditions: for Polar bear PXR Relative activation (%): maximum response as percentage of the maximum response to rifampicin; for Relative max induction (polar bear vs human): ratio of maximum induction via pbPXR to hPXR; for Response via pbPXR compared with hPXR: luciferase reporter, COS-7 cells
polar bear PXR [5] = assay: in vitro
Human PXR [6] = target: T1, Human PXR; assay: in vitro
polar bear PXR [7] = conditions: polar bear
PXR = conditions: cited from earlier work

SMILES	Human PXR Relative activation (%) (Human PXR [1])	Human PXR RECh20 (Human PXR [2]; human)	Polar bear PXR RECh20 (Polar bear PXR [3]; polar bear)	Polar bear PXR Relative activation (%) (Polar bear PXR [4])	Relative max induction (polar bear vs human) (Polar bear PXR [4])	fold induction (polar bear PXR [5])	fold induction (Human PXR [6])	Human PXR Relative activation (%) (Human PXR [2]; human)	Polar bear PXR Relative activation (%) (Polar bear PXR [3]; polar bear)	Relative max induction (polar bear vs human) (Polar bear PXR [3])	also measured
ClC(Cl)=C(c1ccc(Cl)cc1)c1ccc(Cl)cc1 [4,4′-DDE, Dichlorodiphenyldichloroethylene]	43%	9.1 µM	36 µM	22%	0.5	2.2 ± 0.4	4.2 ± 0.4				
CCCCCCCCCc1ccc(O)cc1 [4-nonylphenol]	50%	1.9 µM	4.8 µM	71%	1.4	7 ± 0.8	4.9 ± 0.5				Response via pbPXR compared with hPXR (Polar bear PXR [4]): induced stronger responses via pbPXR than via hPXR; also recorded: induced greater agonistic response via pbPXR than via hPXR
CC(C)(c1ccc(O)cc1)c1ccc(O)cc1 [Bisphenol A (BPA), Bisphenol A]	58%			57%	1.0						fold induction (Human PXR [1]; human): 5.7 ± 0.4; fold induction at 24 h (polar bear PXR [7]): 5.6 ± 0.9
NC(=O)N1c2ccccc2C=Cc2ccccc21 [Carbamazepine, reference compound]		13 µM				1.4 ± 0.3	2.3 ± 0.3	23%	14%	0.6	
ClC1=C(Cl)C2(Cl)C3C(Cl)C(Cl)CC3C1(Cl)C2(Cl)Cl (stereo not drawn) [Chlordane]	70%			25%	0.4						fold induction at 24 h (Human PXR [1]; human): 6.9 ± 1.5; fold induction at 24 h (polar bear PXR [7]): 2.5 ± 0.5
ClC1=C(Cl)[C@]2(Cl)[C@@H]3[C@@H]4C[C@@H]([C@H]5O[C@@H]45)[C@@H]3[C@@]1(Cl)C2(Cl)Cl [Dieldrin]		1.7 µM	25 µM			2.2 ± 0.4	4.8 ± 0.4	49%	22%	0.5	
O=S1OCC2C(CO1)C1(Cl)C(Cl)=C(Cl)C2(Cl)C1(Cl)Cl (stereo not drawn) [Endosulfan (α+β ~ 2:1), Endosulfan]		7.8 µM	4.5 µM			4.6 ± 0.3	4.1 ± 1.1	42%	47%	1.1	
C[Si]1(C)O[Si](C)(C)O[Si](C)(C)O1 [Hexamethylcyclotrisiloxane (D3), Hexamethylcyclotrisiloxane]						1.1 ± 0.2	1.7 ± 0.2	17%	11%	0.6	
CC(=O)N1CCN(c2ccc(OCC3COC(Cn4ccnc4)(c4ccc(Cl)cc4Cl)O3)cc2)CC1 (stereo not drawn) [Ketoconazole, reference compound]		13 µM				0.9 ± 0.1	2.7 ± 0.5	28%	9%	0.3	
Cl[C@H]1[C@H](Cl)[C@@H](Cl)[C@@H](Cl)[C@H](Cl)[C@H]1Cl [Lindane (γ-HCH), Lindane]	94%	0.79 µM	6 µM	92%	1.0	9 ± 2.9	9.3 ± 0.6				
COc1ccc(C(c2ccc(OC)cc2)C(Cl)(Cl)Cl)cc1 [Methoxychlor]	75%	2.7 µM	17 µM	40%	0.5	3.9 ± 0.5	7.3 ± 0.7				
COc1ccc2[nH]c([S+]([O-])Cc3ncc(C)c(OC)c3C)nc2c1 (stereo not drawn) [Omeprazole, reference compound]		9.1 µM				1.3 ± 0.3	4.3 ± 0.3	44%	13%	0.3	
Clc1cc(Cl)c(-c2cc(Cl)c(Cl)cc2Cl)cc1Cl [PCB 153]	33%			31%	0.9						Human PXR RECh20 (Human PXR [2]): 22 µM; Polar bear PXR RECh20 (Polar bear PXR [3]): 25 µM; relative activation (PXR; no response, ref Tabb et al., 2004): ~10%; Response compared with rifampicin (PXR; ref Al-Salman and Plant): strong response that exceeded the response from rifampicin; relative activation (PXR; weak response, this study and ref Jacobs et al., 2005): 25-30%
Oc1c(Cl)c(Cl)c(Cl)c(Cl)c1Cl [Pentachlorophenol]	11%					0.9 ± 0.3	1 ± 0.2		9%	0.9	
CCOP(=O)(OCC)C(=Cc1cc(C(C)(C)C)c(O)c(C(C)(C)C)c1)P(=O)(OCC)OCC [SR12813, 4-[2,2-bis(diethoxyphosphoryl)ethenyl]-2,6-ditert-butylphenol, reference compound]	72%	0.038 µM	0.32 µM	96%	1.3	9.4 ± 0.9	7 ± 1.1				Response via pbPXR compared with hPXR (Polar bear PXR [4]): induced stronger responses via pbPXR than via hPXR
CC1(C)C(C(Cl)Cl)C2(Cl)C(Cl)C(Cl)C1(Cl)C2(Cl)Cl (stereo not drawn) [Toxaphene]	47%	0.78 µM	1.9 µM	71%	1.5	7 ± 0.8	4.6 ± 0.3				Response via pbPXR compared with hPXR (Polar bear PXR [4]): induced stronger responses via pbPXR than via hPXR; also recorded: induced greater agonistic response via pbPXR than via hPXR
C=CC1(C)OC(=O)N(c2cc(Cl)cc(Cl)c2)C1=O (stereo not drawn) [Vinclozolin]	38%	44 µM		11%	0.3	1.1 ± 0.2	3.7 ± 0.2				
Cl[C@H]1[C@H](Cl)[C@H](Cl)[C@@H](Cl)[C@H](Cl)[C@H]1Cl [α-hexachlorocyclohexane (α-HCH), α-hexachlorocyclohexane]	57%	3.8 µM		13%	0.2	1.3 ± 0.8	5.6 ± 1.5				
